Measured values as given in patent US20240270811A1, “Glycosylated Neuropeptide Derivative, Pharmaceutical Composition, Intranasal/Nasal Drop Formulation, and Use of Pharmaceutical Composition” (Tokyo University of Science Foundation, priority 2021, published 2024).
Where no end group is shown, it is not given here. The star is where a group is joined. X1 = CC(=O)N[C@@H]1[C@@H](O)[C@H](O[C@@H]2O[C@H](CO)[C@@H](O[C@@H]3O[C@H](CO[C@H]4O[C@H](CO)[C@@H](O)[C@H](O)[C@@H]4O[C@@H]4O[C@H](CO)[C@@H](O[C@@H]5O[C@H](CO[C@]6(C(=O)O)C[C@H](O)[C@@H](NC(C)=O)[C@H]([C@H](O)[C@H](O)CO)O6)[C@H](O)[C@H](O)[C@H]5O)[C@H](O)[C@H]4NC(C)=O)[C@@H](O)[C@H](O[C@H]4O[C@H](CO)[C@@H](O)[C@H](O)[C@@H]4O[C@@H]4O[C@H](CO)[C@@H](O[C@@H]5O[C@H](CO[C@]6(C(=O)O)C[C@H](O)[C@@H](NC(C)=O)[C@H]([C@H](O)[C@H](O)CO)O6)[C@H](O)[C@H](O)[C@H]5O)[C@H](O)[C@H]4NC(C)=O)[C@@H]3O)[C@H](O)[C@H]2NC(C)=O)[C@@H](CO)O[C@H]1NC(=O)C*

Key:
[1] = Amount of migration to brain quantified by GLP-2 ELISA; type: in vivo; conditions: in vivo, inhaled or intranasal, 6.0 nmol/mouse intranasal, brain isolated 20 minutes after administration, read-out: amount of GLP-2 derivative in brain
Experimental: Mice were intranasally administered with 16% DMSO or GLP-2 derivatives (6.0 nmol/mouse). The brain was isolated 20 minutes after the administration, and homogenized with BioMasher II (Nippi, Tokyo, Japan). A sample was prepared by performing centrifugal separation by 1000×g for 15 minutes and collecting a supernatant. The amount of a GLP-2 derivative in the sample was quantified using a GLP-2 ELISA kit. Specifically, a cleaning process including filling each well of a measurement plate with a cleaning fluid (350 μL) and suctioning the cleaning fluid with a pipette was performed three times. Subsequently, a labeled antigen solution (40 μL), a sample (25 μL) and a specific antibody solution (50 μL) were added in this order to the well and mixed. The measurement plate was tightly sealed and allowed to stand for 18 hours at 4° C. The cleaning process was performed three times, and a SA-HRP solution (100 μL) was added and allowed to permeate for 1.5 hours at room temperature (60 rpm). […] Finally, an enzyme reaction stop solution (100 μL) was added and an absorbance at 490 nm was measured with ARVO (PerkinElmer Japan Co., Ltd., Kanagawa, Japan) to calculate the concentration of a GLP-2 derivative.

[2] = Observation of section of trigeminal nerve after intranasal administration (FITC-labelled); type: in vivo, mouse; conditions: 3.0 nmol/4 μL intranasal, 5 minutes
Experimental: After anesthetizing 7-week-old male ddY mice with isoflurane using an all-in-one small animal anesthetizer, a 16% DMSO solution of a PAS-CPP-GLP-2 derivative (11-sugar) labeled with FITC (3.0 nmol/4 μL) or 16% DMSO as a control was intranasally administered to the mice by the amount of 2 μL per nose cavity, 4 μL in total. The trigeminal nerve was isolated 5 minutes after the administration.
The trigeminal nerve was subjected to infiltration fixation with 4% PFA overnight. On the day following the isolation, the trigeminal nerve was substituted with 20% sucrose overnight (4° C.), and further with 30% sucrose overnight (4° C.). Thereafter, a frozen section with a thickness of 20 μm was prepared using a cryostat (CM3050S; Leica Microsystems).
The frozen section was mounted on a slide glass, and a circle was drawn around the section with a liquid blocker. To the inner side of the circle, 10 mM CuSO4/CH3COONH4 having an ability to suppress auto-fluorescence was added to immerse the section for 15 minutes. After washing three times with 1×PBS, a blocking buffer was added inside the circle and the section was subjected to blocking for 30 minutes at room temperature. […]

[3] = Solubility of GLP-2/GLP-1 derivatives with respect to aqueous medium (PBS); type: physicochemical; conditions: for solubility with respect to PBS (FIG. 1): freeze-dried 5-200 nmol/tube, PBS added, ultrasonic treatment, overnight, supernatant OD 280 nm
Experimental: Samples were prepared by dispensing a Milli-Q aqueous solution of PAS-CPP-GLP-2 (no sugar), PAS-CPP-GLP-2 (5-sugar) or PAS-CPP-GLP-2 (11-sugar) to a microtube by an amount of 5 nmol/tube, 30 nmol/tube, 60 nmol/tube, 120 nmol/tube or 200 nmol/tube, and freeze-drying the same. The freeze-dried samples were added with […] of PBS (Dulbecco's Phosphate Buffered Saline; Sigma-Aldrich, herein after the same), subjected to ultrasonic treatment, and allowed to stand overnight. Thereafter, the concentration of the peptide was measured. Specifically, a supernatant obtained by centrifuging the sample suspension was subjected to the measurement of OD (280 nm) with a spectrometer (NanoDrop™ 2000c spectrometer; Thermo Fisher Scientific K.K.)
Administration solutions were prepared by mixing a PAS-CPP-GLP-2 derivative (no sugar) or a PAS-CPP-GLP-2 derivative (11-sugar) with PBS. […] The concentration of each GLP-2 derivative was adjusted to 0.6 nmol/4 μL.
The concentration of a PAS-CPP-GLP-2 derivative (no sugar) or a PAS-CPP-GLP-2 derivative (11-sugar) was adjusted to 3.0 nmol/4 μL.

FFLIPKGRRRRRRRRGGHADGSFSDEMNTILDNLAARDFINWLIQTKITDC(X1)-OH [PAS-CPP-GLP-2 (11-sugar)]
tissue level at time molar at 20 min [1]: 0.0106 ± 0.000998 nmol/g
fluorescence in section of trigeminal nerve (overlap of derivative and neural fibers) [2]: expresses yellow fluorescence
solubility in PBS ([3]; PBS): completely soluble in PBS
solubility with respect to PBS (FIG. 1) ([3]; listed as GLP-2 derivatives (11-sugar)): linearly improved
solubility with respect to PBS (FIG. 1) ([3]; listed as glycosylated GLP-2 derivative (11-sugar)): improved solubility
state of derivative in PBS administration solution ([3]; mixed with PBS, 0.6 nmol/4 μL): completely dissolved
